Test results from paper PMC8003416, “Modulation of Human Phenylalanine Hydroxylase by 3-Hydroxyquinolin-2(1H)-One Derivatives” (Biomolecules, 2021).
Entries after “also recorded” stand apart in the source; their conditions may differ.

Tests used:
[1] = molecular target: T1, human phenylalanine hydroxylase (hPAH) (Homo sapiens, UniProt P00439); assay: Steady-state kinetics of hPAH for L-Phe; type: biochemical; conditions: 100 μM 3HQ; for S0.5 (L-Phe concentration at half-maximal activity) / h (Hill coefficient) / ki (substrate inhibition): 75 μM BH4, 25 °C; for S0.5 (L-Phe concentration at half-maximal activity): Km for compounds 3 and 11 (Michaelis–Menten fits); for Vmax: 75 μM BH4, L-Phe 25 μM to 2.5 mM, 25 °C; for Activation Ratio (L-Phe activation): 100 μM substrate; for kcat/S0.5 (catalytic efficiency): calculated with hPAH subunit MM 55 kDa
T1 construct: Recombinant full-length wild-type (WT) hPAH was expressed in E. coli Top10 cells in fusion with a hexa-histidyl peptide; made in house; host or cells: E. coli Top10
T1 sequence (P00439 1-452): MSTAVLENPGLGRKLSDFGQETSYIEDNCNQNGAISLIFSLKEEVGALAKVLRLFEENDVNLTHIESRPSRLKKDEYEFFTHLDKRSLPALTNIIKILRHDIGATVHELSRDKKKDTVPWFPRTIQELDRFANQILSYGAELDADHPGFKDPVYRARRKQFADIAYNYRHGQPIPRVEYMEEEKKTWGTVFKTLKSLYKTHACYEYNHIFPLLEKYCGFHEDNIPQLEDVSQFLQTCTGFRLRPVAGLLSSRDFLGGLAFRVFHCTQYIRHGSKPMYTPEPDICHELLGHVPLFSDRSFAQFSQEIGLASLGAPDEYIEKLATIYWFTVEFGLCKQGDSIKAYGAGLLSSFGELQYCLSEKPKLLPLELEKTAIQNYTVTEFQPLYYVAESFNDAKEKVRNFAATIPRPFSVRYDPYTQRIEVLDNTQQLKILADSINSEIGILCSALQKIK
Experimental: The hPAH activity was measured essentially as previously described. Briefly, the enzymatic reaction was performed in a 200 μL final volume, containing 250 mM Na-HEPES, pH 7, 0.1 mg/mL catalase (Sigma-Aldrich; St. Louis, MO, USA), 5 μg (final concentration of 0.112 μM of tetramer) of recombinant hPAH tetramers and 100 μM (NH4)2Fe(II)SO4. Using 100 μM L-Phe and 100 μM of tested compound, three experimental conditions were used to study the compounds’ modulatory effect, namely: non activated (NA), 3HQ-activated (3HQ-A) and substrate/3HQ-activated (Phe/3HQ-A) (Supplementary Figure S3). The reaction was started by addition of 75 μM BH4 (Schircks Laboratories; Bauma, Switzerland) prepared in 5 mM ascorbic acid. In the NA assay, the L-Phe substrate and tested compounds were added together with 75 µM BH4 at the start of the hydroxylation reaction. In the 3HQ-A condition, hPAH was pre-incubated with the tested compound for 4 min at 25 °C and the reaction was started by the addition of BH4 together with L-Phe. In the Phe/3HQ-A condition, hPAH was pre-incubated simultaneously with L-Phe and the tested compound (4 min, 25 °C). Appropriate control reactions were performed where the compounds were omitted and 1% DMSO was used. Kinetic parameters were determined using variable concentrations of L-Phe (25 to 2500 μM) and fixed concentrations of BH4 (75 μM) and tested compound (100 μM). After a 1-min incubation, the reaction was stopped, and the amount of L-Tyr produced was quantified by HPLC as previously described. The specific hPAH enzymatic activity is expressed as nmol of L-Tyr produced during 1 min per mg of protein (nmol L-Tyr.min^−1.mg^−1). The steady-state kinetic data were analyzed by nonlinear regression analysis using GraphPad Prism (La Jolla, CA, USA). Data was fitted to the modified Hill equation accounting for cooperative substrate binding as well as substrate inhibition (Equation (1)), to the modified Michaelis–Menten equation which accounts for substrate inhibition (Equation (2)) and to the non-modified Michaelis–Menten equation:v = (Vmax + Vi ([S]^x/Ki^x))/(1 + (K^h/[S]^h) + ([S]^x/Ki^x))(1) v = (Vmax [S])/(Km + [S](1 + [S]/Ki))(2)

[2] = Alamar Blue cell viability assay; type: cell-based; conditions: human, HEK-293T cells
Experimental: Cytotoxicity of selected 3HQs was assessed in HEK-293T cells using the Alamar Blue assay as a general cell viability endpoint method that monitors the cellular metabolic state, and the propidium iodide (PI) exclusion assay was used to evaluate membrane integrity essentially as described. The 3HQs were tested at a final concentration of 50 and 100 μM (two independent assays; five replicates each). Control assays were performed using 1% DMSO (negative control), or SDS at 1 mg/mL as a positive control of cell death in the PI assay. HEK-293T cells were seeded in sterile flat bottom 96-well tissue culture plates, in RPMI 1640 culture medium, supplemented with 10% fetal bovine serum, 100 units/mL of penicillin G (sodium salt), 100 μg/mL of streptomycin sulphate and 2 mM L-glutamine, at a cell density of 2 × 10^4 cells per well. Cells were incubated at 37 °C and 5% CO2. The culture medium was replaced by fresh medium (supplemented as above) containing the different 3HQs to be analyzed. After 24 h incubation, the culture medium was replaced by […] PI (Sigma-Aldrich) in fresh medium (stock solution 1.5 mM in DMSO) and fluorescence was measured (λexc 485 nm, λem 590 nm) in a FLUOstar Omega microplate reader. The Alamar Blue assay was performed by replacing the culture medium with fresh medium containing 5 mM resazurin (Invitrogen). The cells were further incubated for 3 h and fluorescence was measured (λexc 530 nm, λem 590 nm) in a FLUOstar Omega microplate reader (BMG Labtech). The relative PI uptake and cell viability (%) were calculated using Equations (3) and (4), respectively. Relative PI uptake = Fluorescence intensitysample/Fluorescence intensitynegative control(3) Relative cell viability (%) = Fluorescence intensitysample/Fluorescence intensitycontrol × 100(4)

[3] = molecular target: T1, human phenylalanine hydroxylase (hPAH); assay: Small-angle X-ray scattering of hPAH; conditions: 200 μM in buffer/2% DMSO
Experimental: Small-angle X-ray scattering experiments were performed at the Diamond Light Source B21 [30] beamline at a wavelength of 0.95 Å. Tetrameric hPAH was thawed on ice, centrifuged at 12,000× g for 8 min at 4 °C, and quantitated using a NanoDrop (molar extinction coefficient: 10.09 mg/mL/cm) prior to data acquisition. Measurements were performed in static mode with the automated sample changer at 20 °C using a protein concentration of 86 μM (monomer) in 20 mM Na-HEPES, 200 mM NaCl, pH 7.0 in the absence or presence of 2% DMSO. L-Phe and compound 9 were tested at a final concentration of 200 μM in 2% DMSO. Data were recorded using a Pilatus 2M detector covering a momentum transfer 0.0031 < s < 0.380 Å-1 (s = 4π sin θ/λ, where 2θ is the scattering angle). The data were processed and analyzed using the ATSAS program suite. The sample frames were monitored for radiation damage, the selected frames were averaged, and the buffer contribution was subtracted using PRIMUS [32]. The radius of gyration (Rg) and the maximum particle dimension (Dmax) were estimated from the Guinier approximation using PRIMUS and from the pair-distribution function P(r) using the GNOM package, respectively. Fitting of the experimental curves and the theoretical curves computed from SASBDB models was performed using CRYSOL [31].

SMILES | effect on hPAH kinetic behaviour [1] | S0.5 (L-Phe concentration at half-maximal activity) [1] [µM] | Vmax [1] | Activation Ratio (L-Phe activation) [1] | kcat/S0.5 (catalytic efficiency) [1] [M⁻¹ s⁻¹] | h (Hill coefficient) [1] | ki (substrate inhibition) [1] [mM] | viability at 24 h, 50 µM [2] [%] | viability at 24 h, 100 µM [2] [%] | Dmax of hPAH [3] [Å] | MM of hPAH (MM = VP/1.6) [3] [kDa] | Rg^Guinier of hPAH [3] [Å] | Rg^P(r) of hPAH [3] [Å] | VP (excluded particle volume) of hPAH [3]
CCOC(=O)[C@H](Cc1ccccc1)NC(=O)c1c(O)c(=O)[nH]c2ccc(OC(F)(F)F)cc12 [Compound 3] | weak competitive inhibitors; also recorded: loss of cooperativity | 206 ± 99 | 4.82 ± 0.64 10^3 nmol Tyr.min^−1.mg^−1 | 1.3 | 21700 | – | – | – | – | – | – | – | – | –
O=C(NCCc1ccccc1)c1c(O)c(=O)[nH]c2ccc(OC(F)(F)F)cc12 [Compound 8] | weak competitive inhibitors | 115 ± 9 | 4.38 ± 0.94 10^3 nmol Tyr.min^−1.mg^−1 | 1.7 | 35000 | 1.2 ± 0.3 | 7.2 ± 0.2 | – | – | – | – | – | – | –
COC(=O)CC[C@H](NC(=O)c1c(O)c(=O)[nH]c2ccc(OC(F)(F)F)cc12)C(=O)OC [Compound 9] | – | 108 ± 34 | 3.94 ± 0.64 10^3 nmol Tyr.min^−1.mg^−1 | 1.4 | 33300 | 1.9 ± 0.8 | 23.3 ± 0.5 | 85 ± 32 | 82 ± 13 | 189 | 268 | 52.14 ± 0.07 | 52.00 ± 0.05 | 428,899 Å^3
COC(=O)CNC(=O)c1c(O)c(=O)[nH]c2ccc(OC(F)(F)F)cc12 [Compound 11] | loss of cooperativity | 386 ± 97 | 7.75 ± 1.23 ** 10^3 nmol Tyr.min^−1.mg^−1 | 1.5 | – | – | 2.5 ± 0.3 | 94 ± 3 | 101 ± 5 | – | – | – | – | –
N[C@@H](Cc1ccccc1)C(=O)O [L-Phe, L-phenylalanine, reference compound] | – | – | – | – | – | – | – | – | – | 179 | 393 | 52.73 ± 0.07 | – | 629,301 Å^3
